This experiment has as its system L1210 leukemia ip in BDF1 mice, survival T/C. The experiment is described as follows: NCI In Vivo Anticancer Drug Screen. Data for tumor model L1210 Leukemia (intraperitoneal) in B6D2F1 (BDF1) mice. The following applies: endpoint: mean survival time, higher = longer survival. In short, it runs like this: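 Mice bearing the transplanted tumor received compound or vehicle. Survival of the treated group was divided by that of the vehicle-treated control group to give the ratio.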

[1] abbreviates: dose: 100.0 mg/kg/injection, schedule: Q01DX009 (ip), vehicle: Klucel (hydroxypropylcellulose) (HPC).
Setting [2] is: dose: 200.0 mg/kg/injection, schedule: Q01DX009 (ip), vehicle: Klucel (hydroxypropylcellulose) (HPC).
The mark [3] stands for this setting: dose: 100.0 mg/kg/injection, schedule: Q01DX001 (ip), vehicle: saline with Tween-80.
The mark [4] stands for this setting: dose: 200.0 mg/kg/injection, schedule: Q01DX001 (ip), vehicle: saline with Tween-80.
Where [5] appears, read: dose: 100.0 mg/kg/injection, schedule: Q04DX003 (ip), vehicle: saline with Tween-80.
Setting [6] is: dose: 200.0 mg/kg/injection, schedule: Q04DX003 (ip), vehicle: saline with Tween-80.
Setting [7] is: dose: 400.0 mg/kg/injection, schedule: Q04DX003 (ip), vehicle: saline with Tween-80.
Where [8] appears, read: dose: 100.0 mg/kg/injection, schedule: Q04DX002 (ip), vehicle: saline with Tween-80.
Setting [9] is: dose: 200.0 mg/kg/injection, schedule: Q04DX002 (ip), vehicle: saline with Tween-80.
[10] abbreviates: dose: 400.0 mg/kg/injection, schedule: Q04DX002 (ip), vehicle: saline with Tween-80.
Setting [11] is: dose: 100.0 mg/kg/injection, schedule: Q04DX002 (ip), vehicle: Klucel (hydroxypropylcellulose) (HPC).
The mark [12] stands for this setting: dose: 200.0 mg/kg/injection, schedule: Q04DX002 (ip), vehicle: Klucel (hydroxypropylcellulose) (HPC).
Setting [13] is: dose: 100.0 mg/kg/injection, schedule: Q01DX001 (ip), vehicle: saline.
Where [14] appears, read: dose: 200.0 mg/kg/injection, schedule: Q01DX001 (ip), vehicle: saline.
[15] abbreviates: dose: 400.0 mg/kg/injection, schedule: Q01DX001 (ip), vehicle: saline.
Setting [16] is: dose: 100.0 mg/kg/injection, schedule: Q04DX003 (ip), vehicle: acetone.

Inconclusive results and toxic doses are left out.

Regarding `O=C(c1ccccc1)c1ccccc1`, the T/C reads like this: (dose: 50.0 mg/kg/injection, schedule: Q01DX009 (ip), vehicle: Klucel (hydroxypropylcellulose) (HPC)) 96 % of control; (dose: 75.0 mg/kg/injection, schedule: Q04DX003 (ip), vehicle: saline) 100 % of control; under setting [1], 101 % of control; (dose: 150.0 mg/kg/injection, schedule: Q04DX003 (ip), vehicle: saline) 100 % of control; under setting [2], 97 % of control; (dose: 300.0 mg/kg/injection, schedule: Q04DX003 (ip), vehicle: saline) 104 % of control.

For `c1ccc(-c2cnnn2-c2ccccc2)cc1`, the T/C is 105 % of control under setting [3]; 100 % of control under setting [4]; 105 % of control (dose: 400.0 mg/kg/injection, schedule: Q01DX001 (ip), vehicle: saline with Tween-80).

For the molecule `COc1ccc(N)cc1OC`, the T/C (dose: 100.0 mg/kg/injection, schedule: Q04DX003 (ip), vehicle: saline) is 110 % of control; the T/C (dose: 200.0 mg/kg/injection, schedule: Q04DX003 (ip), vehicle: saline) is 105 % of control; the T/C (dose: 400.0 mg/kg/injection, schedule: Q04DX003 (ip), vehicle: saline) is 100 % of control.

`c1ccc([Si]2(c3ccccc3)c3ccccc3-c3ccccc32)cc1`: the T/C was 94 % of control under setting [5], 87 % of control under setting [6] and 87 % of control under setting [7].

Take `CNC(=S)c1ccc(Cl)cc1`: the T/C reads like this: (dose: 12.5 mg/kg/injection, schedule: Q01DX009 (ip), vehicle: Klucel (hydroxypropylcellulose) (HPC)) 96 % of control; (dose: 25.0 mg/kg/injection, schedule: Q01DX009 (ip), vehicle: Klucel (hydroxypropylcellulose) (HPC)) 94 % of control.

As for `c1ccc2c(c1)[nH]c1c2c[n+]2c3c(cccc13)CCC2`, the T/C is, setting by setting: (dose: 3.13 mg/kg/injection, schedule: Q01DX009 (ip), vehicle: saline) 105 % of control; (dose: 6.25 mg/kg/injection, schedule: Q01DX009 (ip), vehicle: saline) 105 % of control; (dose: 12.5 mg/kg/injection, schedule: Q01DX009 (ip), vehicle: saline) 105 % of control.

In the case of `O=C(O)c1ccccc1C(=O)c1ccc(-c2ccccc2)cc1`, the T/C reads like this: (dose: 100.0 mg/kg/injection, schedule: Q01DX001 (ip), vehicle: Klucel (hydroxypropylcellulose) (HPC)) 110 % of control; (dose: 200.0 mg/kg/injection, schedule: Q01DX001 (ip), vehicle: Klucel (hydroxypropylcellulose) (HPC)) 102 % of control; (dose: 400.0 mg/kg/injection, schedule: Q01DX001 (ip), vehicle: Klucel (hydroxypropylcellulose) (HPC)) 100 % of control.

Regarding `CC(NC(=O)Nc1ccccc1Cl)c1ccccc1` (stereo not drawn), the T/C under setting [1] is 105 % of control; the T/C under setting [2] was 105 % of control; the T/C (dose: 400.0 mg/kg/injection, schedule: Q01DX009 (ip), vehicle: Klucel (hydroxypropylcellulose) (HPC)) was 102 % of control.

As to `COc1ccc2c(c1OC(C)=O)-c1cc(OC(C)=O)cc3c1C(C2)N(C)CC3` (stereo not drawn), the T/C reads like this: (dose: 25.0 mg/kg/injection, schedule: Q04DX003 (ip), vehicle: DMSO) 93 % of control; (dose: 50.0 mg/kg/injection, schedule: Q04DX003 (ip), vehicle: DMSO) 95 % of control; (dose: 100.0 mg/kg/injection, schedule: Q04DX003 (ip), vehicle: DMSO) 106 % of control.

Consider `CCCCCCCCCCN=C(N)N/C(N)=N/S(=O)(=O)c1ccc(OCCC)cc1`, for which the T/C under setting [8] is 100 % of control, the T/C under setting [9] is 110 % of control and the T/C under setting [10] is 107 % of control.

As to `CS(=O)(=O)OC1COC(c2ccccc2)OC1C1OC(c2ccccc2)OCC1OS(C)(=O)=O` (stereo not drawn), the T/C runs as follows: (dose: 50.0 mg/kg/injection, schedule: Q04DX002 (ip), vehicle: Klucel (hydroxypropylcellulose) (HPC)) 98 % of control; under setting [11], 98 % of control; under setting [12], 109 % of control.

In the case of `O=C1OC(c2cccc(Cl)c2)=N/C1=C\c1ccc(O)cc1`, the T/C by setting is: under setting [8], 118 % of control; under setting [9], 100 % of control; under setting [10], 104 % of control.

Regarding `O=c1cc(I)[nH]c(=O)[nH]1`, the T/C was 100 % of control (dose: 73.0 mg/kg/injection, schedule: Q01DX Z (ip), vehicle: methylcellulose (MC)); 96 % of control (dose: 111.0 mg/kg/injection, schedule: Q01DX Z (ip), vehicle: methylcellulose (MC)); 102 % of control (dose: 165.0 mg/kg/injection, schedule: Q01DX Z (ip), vehicle: methylcellulose (MC)); 110 % of control (dose: 248.0 mg/kg/injection, schedule: Q01DX Z (ip), vehicle: methylcellulose (MC)).

Take `CCOC(=O)C/C(C)=N\N=C(\C)C(=O)OCC`: the T/C is, setting by setting: under setting [13], 98 % of control; under setting [14], 98 % of control; under setting [15], 92 % of control.

For the molecule `CC1CCN1c1ccccc1` (stereo not drawn), under setting [16], the T/C was 88 % of control.

As to `Nc1c(Cl)c(Cl)cc(Cl)c1Cl`, the T/C reads like this: (dose: 100.0 mg/kg/injection, schedule: Q01DX009 (ip), vehicle: saline with Tween-80) 102 % of control; (dose: 200.0 mg/kg/injection, schedule: Q01DX009 (ip), vehicle: saline with Tween-80) 100 % of control; (dose: 400.0 mg/kg/injection, schedule: Q01DX009 (ip), vehicle: saline with Tween-80) 95 % of control.

`CSc1nc2c(N)ncnc2n1C1OC(CO)C(O)C1O` (stereo not drawn): the T/C was 98 % of control (dose: 100.0 mg/kg/injection, schedule: Q01DX005 (ip), vehicle: saline) and 101 % of control (dose: 200.0 mg/kg/injection, schedule: Q01DX005 (ip), vehicle: saline).

Turning to `CC(C)=CC(=O)OC1C2C(CC(C)C3C(O)CC(=O)C13C)OC(=O)C2C` (stereo not drawn), the T/C runs as follows: under setting [13], 107 % of control; under setting [14], 100 % of control; under setting [15], 97 % of control.

In the case of `O=C([O][Sb]([O]C(=O)C(F)(F)F)([c]1ccccc1)([c]1ccccc1)[c]1ccccc1)C(F)(F)F`, the T/C under setting [3] was 99 % of control and the T/C under setting [4] was 92 % of control.

As for `COC1OCC(NC(C)=O)C(OC(C)=O)C1OC(C)=O` (stereo not drawn), the T/C reads like this: (dose: 50.0 mg/kg/injection, schedule: Q01DX001 (sc), vehicle: saline) 104 % of control; (dose: 100.0 mg/kg/injection, schedule: Q01DX001 (sc), vehicle: saline) 101 % of control; (dose: 200.0 mg/kg/injection, schedule: Q01DX001 (sc), vehicle: saline) 111 % of control; (dose: 400.0 mg/kg/injection, schedule: Q01DX001 (sc), vehicle: saline) 95 % of control.

`Cc1cc(S(=O)(=O)F)cc(Cl)c1S`: the T/C (dose: 25.0 mg/kg/injection, schedule: Q04DX002 (ip), vehicle: saline with Tween-80) is 99 % of control and the T/C (dose: 50.0 mg/kg/injection, schedule: Q04DX002 (ip), vehicle: saline with Tween-80) is 92 % of control.

Turning to `CC1(C)OC2COC3(COC(C)(C)O3)C(OS(C)(=O)=O)C2O1` (stereo not drawn), the T/C runs as follows: under setting [5], 92 % of control; under setting [6], 95 % of control; under setting [7], 95 % of control.

Regarding `CS(=O)(=O)OCC(COS(C)(=O)=O)(COS(C)(=O)=O)COS(C)(=O)=O`, the T/C runs as follows: under setting [11], 96 % of control; under setting [12], 92 % of control; (dose: 400.0 mg/kg/injection, schedule: Q04DX002 (ip), vehicle: Klucel (hydroxypropylcellulose) (HPC)) 107 % of control.

With `C=CCC1CCCCC1`, the T/C (dose: 100.0 mg/kg/injection, schedule: Q01DX001 (ip), vehicle: carboxymethylcellulose (CMC)) was 104 % of control; the T/C (dose: 200.0 mg/kg/injection, schedule: Q01DX001 (ip), vehicle: carboxymethylcellulose (CMC)) was 105 % of control; the T/C (dose: 400.0 mg/kg/injection, schedule: Q01DX001 (ip), vehicle: carboxymethylcellulose (CMC)) was 104 % of control.

Take `C#CCCCCCC#CCCCCCC#CCCCCCC#C`: the T/C was 94 % of control under setting [16] and 95 % of control (dose: 200.0 mg/kg/injection, schedule: Q04DX003 (ip), vehicle: acetone).

For the origin of these results see PubChem BioAssay AID248 (DTP/NCI, 2004).
